Tested on: MV-4-11 cells
Assay: Gene expression microarray analysis (Affymetrix PrimeView) and GSEA
Format: cell-based, human
Parameters: RFU PODN (11730768_x_at) / Fold change /veh PODN (11730768_x_at) / RFU LINC00158 (11744669_a_at) / Fold change /veh LINC00158 (11744669_a_at) / RFU DUSP10 (11751237_a_at) / Fold change /veh DUSP10 (11751237_a_at) / RFU ID3 (11757404_x_at) / Fold change /veh ID3 (11757404_x_at) / RFU PLEKHG5 (11737974_s_at) / Fold change /veh PLEKHG5 (11737974_s_at) / RFU LRRC4B (11730491_at) / Fold change /veh LRRC4B (11730491_at) / RFU GIMAP4 (11747438_a_at) / Fold change /veh GIMAP4 (11747438_a_at) / RFU KRT8 (11758183_x_at) / Fold change /veh KRT8 (11758183_x_at) / RFU CNN1 (11734310_a_at) / Fold change /veh CNN1 (11734310_a_at) / RFU VPS37D (11726825_at) / Fold change /veh VPS37D (11726825_at) / RFU C10orf10 (11716522_x_at) / Fold change /veh C10orf10 (11716522_x_at) / RFU KIR2DL2 /// KIR2DL4 /// KIR2DL5A /// KIR2DL5B /// KIR2DS1 /// KIR2DS2 /// KIR2DS3 /// KIR2DS4 /// KIR3DL3 /// KIR3DL3 /// KIR3DS1 (11738374_at) / Fold change /veh KIR2DL2 /// KIR2DL4 /// KIR2DL5A /// KIR2DL5B /// KIR2DS1 /// KIR2DS2 /// KIR2DS3 /// KIR2DS4 /// KIR3DL3 /// KIR3DL3 /// KIR3DS1 (11738374_at) / RFU C1QL1 (11718748_at) / Fold change /veh C1QL1 (11718748_at) / RFU TMPRSS4 (11747572_a_at) / Fold change /veh TMPRSS4 (11747572_a_at) / RFU HAMP (11756126_x_at) / Fold change /veh HAMP (11756126_x_at) / RFU RNFT2 (11725882_a_at) / Fold change /veh RNFT2 (11725882_a_at) / RFU NR4A2 (11747474_a_at) / Fold change /veh NR4A2 (11747474_a_at) / RFU ABCC12 (11746883_a_at) / Fold change /veh ABCC12 (11746883_a_at) / RFU TMEM136 (11760407_x_at) / Fold change /veh TMEM136 (11760407_x_at) / RFU CLDN22 /// WWC2 (11732394_at) / Fold change /veh CLDN22 /// WWC2 (11732394_at) / RFU HLA-DPB1 (11760878_x_at) / Fold change /veh HLA-DPB1 (11760878_x_at) / RFU SPINT1 (11716480_a_at) / Fold change /veh SPINT1 (11716480_a_at) / RFU GAP43 (11754022_s_at) / Fold change /veh GAP43 (11754022_s_at) / RFU A4GNT (11735810_at) / Fold change /veh A4GNT (11735810_at) / RFU PRB3 (11715151_x_at) / Fold change /veh PRB3 (11715151_x_at) / RFU TUBB4B (11761932_at) / Fold change /veh TUBB4B (11761932_at) / RFU CAPN14 (11732068_a_at) / Fold change /veh CAPN14 (11732068_a_at) / RFU TMCC2 (11721928_a_at) / Fold change /veh TMCC2 (11721928_a_at) / RFU IRGQ (11745062_a_at) / Fold change /veh IRGQ (11745062_a_at) / RFU FAM174B (11720279_a_at) / Fold change /veh FAM174B (11720279_a_at) / RFU TMPRSS4 (11748680_a_at) / Fold change /veh TMPRSS4 (11748680_a_at) / RFU FAM212B (11763350_a_at) / Fold change /veh FAM212B (11763350_a_at) / RFU PLEKHG5 (11743358_a_at) / Fold change /veh PLEKHG5 (11743358_a_at) / RFU ZSCAN30 (11745921_a_at) / Fold change /veh ZSCAN30 (11745921_a_at) / RFU CMKLR1 (11741424_a_at) / Fold change /veh CMKLR1 (11741424_a_at) / RFU LOC101060620 /// MAPK8IP1 (11723275_at) / Fold change /veh LOC101060620 /// MAPK8IP1 (11723275_at) / RFU SPTSSB (11747773_x_at) / Fold change /veh SPTSSB (11747773_x_at) / RFU PRSS12 (11739890_at) / Fold change /veh PRSS12 (11739890_at) / RFU BIN1 (11741810_x_at) / Fold change /veh BIN1 (11741810_x_at) / RFU WNT11 (11732464_a_at) / Fold change /veh WNT11 (11732464_a_at) / RFU C10orf10 (11716521_a_at) / Fold change /veh C10orf10 (11716521_a_at) / RFU C5orf56 (11738089_at) / Fold change /veh C5orf56 (11738089_at) / RFU CYB561 (11721691_x_at) / Fold change /veh CYB561 (11721691_x_at) / RFU ANKRD19P (11752326_a_at) / Fold change /veh ANKRD19P (11752326_a_at) / RFU OR2T12 /// OR2T33 /// OR2T8 (11738714_s_at) / Fold change /veh OR2T12 /// OR2T33 /// OR2T8 (11738714_s_at) / RFU VCAN (11748164_a_at) / Fold change /veh VCAN (11748164_a_at) / RFU JSRP1 (11732532_at) / Fold change /veh JSRP1 (11732532_at) / RFU KRTAP10-11 (11738290_x_at) / Fold change /veh KRTAP10-11 (11738290_x_at) / RFU MYO3A (11730013_a_at) / Fold change /veh MYO3A (11730013_a_at) / RFU EBF3 (11725865_a_at) / Fold change /veh EBF3 (11725865_a_at) / RFU CAMK2N1 (11719241_x_at) / Fold change /veh CAMK2N1 (11719241_x_at) / RFU C5orf56 (11738088_a_at) / Fold change /veh C5orf56 (11738088_a_at) / RFU OLFML3 (11715873_a_at) / Fold change /veh OLFML3 (11715873_a_at) / RFU LOC100653217 /// NTM (11731650_a_at) / Fold change /veh LOC100653217 /// NTM (11731650_a_at) / RFU MAPK11 (11762145_a_at) / Fold change /veh MAPK11 (11762145_a_at) / RFU FIZ1 (11724087_x_at) / Fold change /veh FIZ1 (11724087_x_at) / RFU OASL (11726364_x_at) / Fold change /veh OASL (11726364_x_at) / RFU SOX15 (11748057_x_at) / Fold change /veh SOX15 (11748057_x_at) / RFU CD79A (11719716_a_at) / Fold change /veh CD79A (11719716_a_at) / RFU HIST1H1D (11736915_at) / Fold change /veh HIST1H1D (11736915_at) / RFU CASKIN2 (11723855_a_at) / Fold change /veh CASKIN2 (11723855_a_at) / RFU LOC730098 (11760151_x_at) / Fold change /veh LOC730098 (11760151_x_at) / RFU OR4N2 (11742367_at) / Fold change /veh OR4N2 (11742367_at) / RFU PRRT2 (11749266_a_at) / Fold change /veh PRRT2 (11749266_a_at) / RFU SNX32 (11753110_a_at) / Fold change /veh SNX32 (11753110_a_at) / RFU CDHR5 (11726645_a_at) / Fold change /veh CDHR5 (11726645_a_at) / RFU RCAN1 (11760418_a_at) / Fold change /veh RCAN1 (11760418_a_at) / RFU FAM167A (11723789_a_at) / Fold change /veh FAM167A (11723789_a_at) / RFU FAM26E (11764081_at) / Fold change /veh FAM26E (11764081_at) / RFU ISYNA1 (11749810_s_at) / Fold change /veh ISYNA1 (11749810_s_at) / RFU ACY1 (11761880_at) / Fold change /veh ACY1 (11761880_at) / RFU 11764098_at / Fold change /veh 11764098_at / RFU SAMD14 (11745864_x_at) / Fold change /veh SAMD14 (11745864_x_at) / RFU NPB (11741838_a_at) / Fold change /veh NPB (11741838_a_at) / RFU TMPRSS6 (11731388_a_at) / Fold change /veh TMPRSS6 (11731388_a_at) / RFU KRTAP10-2 (11738614_at) / Fold change /veh KRTAP10-2 (11738614_at) / RFU ARHGAP8 /// PRR5-ARHGAP8 (11727945_x_at) / Fold change /veh ARHGAP8 /// PRR5-ARHGAP8 (11727945_x_at) / RFU KRTAP5-7 /// NADSYN1 (11734609_at) / Fold change /veh KRTAP5-7 /// NADSYN1 (11734609_at) / RFU RASL12 (11751679_a_at) / Fold change /veh RASL12 (11751679_a_at) / RFU CDKN2B (11736163_a_at) / Fold change /veh CDKN2B (11736163_a_at) / RFU PRF1 (11729649_at) / Fold change /veh PRF1 (11729649_at) / RFU, ZNF638 /// ZNF638-IT1 / Fold change vs veh, ZNF638 /// ZNF638-IT1 / RFU, PANK3 / Fold change vs veh, PANK3 / RFU, SH3YL1 / Fold change vs veh, SH3YL1 / RFU, ZEB2 / Fold change vs veh, ZEB2 / RFU, NRIP1 / Fold change vs veh, NRIP1 / RFU, PTTG1IP / Fold change vs veh, PTTG1IP / RFU, CAPN2 / Fold change vs veh, CAPN2 / RFU, MED14 / Fold change vs veh, MED14 / RFU, SNORA58 / Fold change vs veh, SNORA58 / RFU, C1orf63 / Fold change vs veh, C1orf63 / RFU, LRRFIP1 / Fold change vs veh, LRRFIP1 / RFU, NDUFAF7 / Fold change vs veh, NDUFAF7 / RFU, SLC12A2 / Fold change vs veh, SLC12A2 / RFU, IBTK / Fold change vs veh, IBTK / RFU, ESF1 / Fold change vs veh, ESF1 / Fold change vs veh, TMEM50B / RFU, TAOK1 / Fold change vs veh, TAOK1 / RFU, ACBD3 / Fold change vs veh, ACBD3 / RFU, TMA16 / Fold change vs veh, TMA16 / RFU, RWDD3 / Fold change vs veh, RWDD3 / RFU, BCAT1 / Fold change vs veh, BCAT1 / RFU, EDEM3 / Fold change vs veh, EDEM3 / RFU, TMEM33 / Fold change vs veh, TMEM33 / RFU, WDR75 / Fold change vs veh, WDR75 / RFU, AHCTF1 / Fold change vs veh, AHCTF1 / RFU, TFRC / Fold change vs veh, TFRC / RFU, ZDHHC17 / Fold change vs veh, ZDHHC17 / RFU, NOM1 / Fold change vs veh, NOM1 / RFU, ARL8B / Fold change vs veh, ARL8B / RFU, ZBTB11 / Fold change vs veh, ZBTB11 / RFU, TAMM41 / Fold change vs veh, TAMM41 / RFU, KIAA1704 /// LOC100996395 / Fold change vs veh, KIAA1704 /// LOC100996395 / RFU, ING1 / Fold change vs veh, ING1 / RFU, TRMT61B / Fold change vs veh, TRMT61B / RFU, FUBP3 / Fold change vs veh, FUBP3 / RFU, TP53 / Fold change vs veh, TP53 / RFU, TNKS2 / Fold change vs veh, TNKS2 / RFU, ZFP14 / Fold change vs veh, ZFP14 / RFU, ACTR2 / Fold change vs veh, ACTR2 / RFU, PPP3R1 / Fold change vs veh, PPP3R1 / RFU, PIK3R1 / Fold change vs veh, PIK3R1 / RFU, HNRNPA1 / Fold change vs veh, HNRNPA1 / RFU, RNF170 / Fold change vs veh, RNF170 / RFU, ZNF28 / Fold change vs veh, ZNF28 / RFU, RNGTT / Fold change vs veh, RNGTT / RFU, OGT / Fold change vs veh, OGT / RFU, BRD1 / Fold change vs veh, BRD1 / RFU, MARS / Fold change vs veh, MARS / RFU, ZNF655 / Fold change vs veh, ZNF655 / RFU, FAHD1 / Fold change vs veh, FAHD1 / RFU, BDP1 / Fold change vs veh, BDP1 / RFU, LRRCC1 / Fold change vs veh, LRRCC1 / RFU, ARID1A / Fold change vs veh, ARID1A / RFU, ZNF146 / Fold change vs veh, ZNF146 / RFU, ZNF330 / Fold change vs veh, ZNF330 / RFU, GPN3 / Fold change vs veh, GPN3 / RFU, C9orf123 / Fold change vs veh, C9orf123 / RFU, N4BP2L2 / Fold change vs veh, N4BP2L2 / RFU, ARFIP1 / Fold change vs veh, ARFIP1 / RFU, FAM179B / Fold change vs veh, FAM179B / RFU, BCL10 / Fold change vs veh, BCL10 / RFU, UHRF1BP1L / Fold change vs veh, UHRF1BP1L / RFU, BET1 / Fold change vs veh, BET1 / RFU, CNOT2 / Fold change vs veh, CNOT2 / RFU, ZNF268 / Fold change vs veh, ZNF268 / Fold change vs veh, ZNF507 / RFU, DGCR2 / Fold change vs veh, DGCR2 / RFU, WDSUB1 / Fold change vs veh, WDSUB1 / Fold change vs veh, HSP90B1 /// MIR3652 / RFU, ADSS / Fold change vs veh, ADSS / RFU, GK / Fold change vs veh, GK / RFU, ZNF148 / Fold change vs veh, ZNF148 / RFU, TAF9 / Fold change vs veh, TAF9 / RFU, SLC1A5 / Fold change vs veh, SLC1A5 / RFU, SLMO2 / Fold change vs veh, SLMO2 / RFU, ABCC4 / Fold change vs veh, ABCC4 / RFU, LOC101060439 /// RAP1B / Fold change vs veh, LOC101060439 /// RAP1B / RFU, RFX7 / Fold change vs veh, RFX7 / RFU, GTPBP10 / Fold change vs veh, GTPBP10 / RFU, CNEP1R1 / Fold change vs veh, CNEP1R1 / RFU, BIVM-ERCC5 /// ERCC5 / Fold change vs veh, BIVM-ERCC5 /// ERCC5 / RFU, ILF3 / Fold change vs veh, ILF3 / RFU 11762660_at / Fold change /veh 11762660_at / RFU VCAN (11757783_s_at) / Fold change /veh VCAN (11757783_s_at) / RFU DDX43 (11728927_at) / Fold change /veh DDX43 (11728927_at) / RFU KRT8 (11758188_x_at) / Fold change /veh KRT8 (11758188_x_at) / RFU NKD1 (11759106_at) / Fold change /veh NKD1 (11759106_at) / RFU SRD5A1 (11742802_a_at) / Fold change /veh SRD5A1 (11742802_a_at) / RFU TPSAB1 /// TPSB2 (11721975_s_at) / Fold change /veh TPSAB1 /// TPSB2 (11721975_s_at) / RFU GSTM3 (11746129_a_at) / Fold change /veh GSTM3 (11746129_a_at) / RFU IL23R (11737362_x_at) / Fold change /veh IL23R (11737362_x_at) / RFU TMEM51 (11727254_a_at) / Fold change /veh TMEM51 (11727254_a_at) / RFU PIWIL2 (11732686_x_at) / Fold change /veh PIWIL2 (11732686_x_at) / RFU ORM1 (11744905_x_at) / Fold change /veh ORM1 (11744905_x_at) / RFU CCDC152 (11743942_at) / Fold change /veh CCDC152 (11743942_at) / RFU ECM1 (11717891_a_at) / Fold change /veh ECM1 (11717891_a_at) / RFU IL23R (11748794_a_at) / Fold change /veh IL23R (11748794_a_at) / RFU TNFAIP8L3 (11732012_x_at) / Fold change /veh TNFAIP8L3 (11732012_x_at) / RFU MBOAT4 (11741988_at) / Fold change /veh MBOAT4 (11741988_at) / RFU 11764193_at / Fold change /veh 11764193_at / RFU TMEM53 (11763286_at) / Fold change /veh TMEM53 (11763286_at) / RFU MAGEB2 (11727129_at) / Fold change /veh MAGEB2 (11727129_at) / RFU TMEM200A (11744735_a_at) / Fold change /veh TMEM200A (11744735_a_at) / RFU CCDC152 (11751479_a_at) / Fold change /veh CCDC152 (11751479_a_at) / RFU FAM211A (11726209_a_at) / Fold change /veh FAM211A (11726209_a_at) / RFU RGS16 (11746705_a_at) / Fold change /veh RGS16 (11746705_a_at) / RFU VCAN (11755009_s_at) / Fold change /veh VCAN (11755009_s_at) / RFU RHOB (11743442_s_at) / Fold change /veh RHOB (11743442_s_at) / RFU RGS16 (11720943_a_at) / Fold change /veh RGS16 (11720943_a_at) / RFU RGS16 (11720944_at) / Fold change /veh RGS16 (11720944_at) / RFU, VPS4B / Fold change vs veh, VPS4B / RFU, CREB1 / Fold change vs veh, CREB1 / RFU, DNAJC13 / Fold change vs veh, DNAJC13 / RFU, GNAQ / Fold change vs veh, GNAQ / RFU, CDK5R1 / Fold change vs veh, CDK5R1 / RFU, ZRANB3 / Fold change vs veh, ZRANB3 / RFU, CUL4A / Fold change vs veh, CUL4A / RFU, CCNY / Fold change vs veh, CCNY / RFU, UFL1 / Fold change vs veh, UFL1 / RFU, COG3 / Fold change vs veh, COG3 / RFU, DIAPH2 / Fold change vs veh, DIAPH2 / RFU, SKA2 / Fold change vs veh, SKA2 / RFU, AFF3 / Fold change vs veh, AFF3 / RFU, LMF1 / Fold change vs veh, LMF1 / RFU, IPO11 / Fold change vs veh, IPO11 / RFU, DFFB / Fold change vs veh, DFFB / RFU, FOXP1 / Fold change vs veh, FOXP1 / RFU, CARD8 / Fold change vs veh, CARD8 / RFU, STRN3 / Fold change vs veh, STRN3 / RFU, ADK / Fold change vs veh, ADK / RFU, RASSF2 / Fold change vs veh, RASSF2 / RFU, WIPF1 / Fold change vs veh, WIPF1 / RFU, LARP1B / Fold change vs veh, LARP1B / RFU, RASA1 / Fold change vs veh, RASA1 / RFU, RB1 / Fold change vs veh, RB1 / RFU, PPFIA1 / Fold change vs veh, PPFIA1 / RFU, MAT2A / Fold change vs veh, MAT2A / RFU, CCT5 / Fold change vs veh, CCT5 / RFU, WDR92 / Fold change vs veh, WDR92 / RFU, CUX1 / Fold change vs veh, CUX1 / RFU, TTC7A / Fold change vs veh, TTC7A / RFU, TMEM135 / Fold change vs veh, TMEM135 / RFU, DEPTOR / Fold change vs veh, DEPTOR / RFU, CPM / Fold change vs veh, CPM / RFU, DNAJB6 / Fold change vs veh, DNAJB6 / RFU, CACNA2D3 / Fold change vs veh, CACNA2D3 / RFU, DTX4 / Fold change vs veh, DTX4 / RFU, TFCP2 / Fold change vs veh, TFCP2 / RFU, GMCL1 /// GMCL1P1 / Fold change vs veh, GMCL1 /// GMCL1P1 / RFU, AEBP2 / Fold change vs veh, AEBP2 / RFU, SNHG1 /// SNORD22 /// SNORD25 /// SNORD26 /// SNORD27 /// SNORD28 /// SNORD29 /// SNORD31 / Fold change vs veh, SNHG1 /// SNORD22 /// SNORD25 /// SNORD26 /// SNORD27 /// SNORD28 /// SNORD29 /// SNORD31 / Fold change (Aza/veh), C12orf56 (ProbeSet 11735607_a_at) / Fold change (ACY-1035/veh), C12orf56 (ProbeSet 11735607_a_at) / Fold change (Aza/veh), FGFR1OP (ProbeSet 11751329_s_at) / Fold change (ACY-1035/veh), FGFR1OP (ProbeSet 11751329_s_at) / Fold change (Aza/veh), VPS36 (ProbeSet 11739960_a_at) / Fold change (ACY-1035/veh), VPS36 (ProbeSet 11739960_a_at) / RFU SYPL1 (11715823_x_at) / Fold change /veh SYPL1 (11715823_x_at) / RFU IGFBP7 (11715501_s_at) / Fold change /veh IGFBP7 (11715501_s_at) / RFU REEP3 (11722064_at) / Fold change /veh REEP3 (11722064_at) / RFU IGLL1 (11728026_x_at) / Fold change /veh IGLL1 (11728026_x_at): dose or concentration left out as unconfirmed
Details: MV-4-11 cells, 48 hours

Nc1ncn([C@@H]2O[C@H](CO)[C@@H](O)[C@H]2O)c(=O)n1 [azacitidine]
RFU RASL12 (11751679_a_at): 15.38 RFU

Source: paper PMC5218480 (PLoS ONE, 2017)
